Assay [1] concerns Cavia porcellus. The assay is described as follows: Eosinophil infiltration in passively-sensitized guinea pig at 30 mg/kg peroral dose 90 min prior to challenge. The class given is functional. Conditions: route oral.
Assay [2] relates to Cavia porcellus. The assay is described as follows: Inhibition of bronchoconstriction in passively-sensitized guinea pig at 1 mg/kg iv dose 10 min prior to challenge. The class given is functional. Conditions: Lung.
The subject of a further assay is Mustela putorius furo. The assay is described as follows: Emetic effect in ferrets after peroral administration at 0.03 mg/kg (2/5). Set-up: dose 0.03 mg/kg. The class given is functional, organism-based.

Activity calls are given as the source filed them.

In general, inhibition in vivo refers to how much of the control response was suppressed. On to `COc1ccc(/C=N/NC(N)=O)cc1OC1CCCC1`, for which the inhibition in vivo at 30 mg/kg in the assay on Cavia porcellus [1] stood at 63%. In addition, the inhibition in vivo at 1 mg/kg in the assay on Cavia porcellus [2] stood at 90.3%.

As for `COc1ccc(C2CNC(=O)C2)cc1OC1CCCC1` (stereo not given) [ROLIPRAM], in the assay on Mustela putorius furo, the Emesis result was “Partially active”. Moreover, the inhibition in vivo at 30 mg/kg in the assay with Cavia porcellus [1] is 62%. Moreover, in the assay with Cavia porcellus [2], the inhibition in vivo at 1 mg/kg is 95.4%.

For the origin of these results see ChEMBL document CHEMBL1136107, “Improvement of therapeutic index of phosphodiesterase type IV inhibitors as anti-Asthmatics” (Bioorg Med Chem Lett, 2003).
